# Target: T1, insulin-regulated aminopeptidase (IRAP, EC 3.4.11.3) (Rattus norvegicus, UniProt P97629)
# T1 sequence (P97629 1-1025): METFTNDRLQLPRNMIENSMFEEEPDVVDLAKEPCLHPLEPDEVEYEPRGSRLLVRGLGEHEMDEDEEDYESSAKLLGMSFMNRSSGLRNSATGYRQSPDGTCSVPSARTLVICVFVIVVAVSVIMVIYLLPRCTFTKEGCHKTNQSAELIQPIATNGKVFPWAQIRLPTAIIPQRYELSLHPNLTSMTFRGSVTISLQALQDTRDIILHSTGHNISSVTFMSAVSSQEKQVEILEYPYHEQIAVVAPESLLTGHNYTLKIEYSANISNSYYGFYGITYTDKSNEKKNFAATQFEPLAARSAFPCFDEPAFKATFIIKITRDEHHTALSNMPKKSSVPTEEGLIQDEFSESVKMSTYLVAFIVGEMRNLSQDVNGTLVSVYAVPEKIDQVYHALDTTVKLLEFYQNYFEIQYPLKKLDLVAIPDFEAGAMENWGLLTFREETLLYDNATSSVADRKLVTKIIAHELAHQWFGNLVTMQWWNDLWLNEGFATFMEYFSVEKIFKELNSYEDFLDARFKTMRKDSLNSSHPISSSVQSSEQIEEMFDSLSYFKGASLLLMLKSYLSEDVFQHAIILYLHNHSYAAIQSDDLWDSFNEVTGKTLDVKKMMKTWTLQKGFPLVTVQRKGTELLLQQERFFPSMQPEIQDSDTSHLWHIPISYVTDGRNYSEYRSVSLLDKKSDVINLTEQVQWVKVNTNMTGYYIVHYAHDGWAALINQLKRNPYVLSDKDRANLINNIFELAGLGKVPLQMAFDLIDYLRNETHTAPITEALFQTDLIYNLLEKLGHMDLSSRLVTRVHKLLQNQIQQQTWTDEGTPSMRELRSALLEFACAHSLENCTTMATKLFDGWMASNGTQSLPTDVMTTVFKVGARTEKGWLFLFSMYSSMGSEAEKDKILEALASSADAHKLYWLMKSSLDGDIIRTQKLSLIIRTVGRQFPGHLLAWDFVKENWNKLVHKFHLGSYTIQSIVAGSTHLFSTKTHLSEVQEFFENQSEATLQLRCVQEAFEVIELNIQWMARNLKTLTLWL
# Experiment: EOP-MD probe with cLC-MS2: effect of HFI-419 on LE hydrolysis in vivo
# Conditions: 50 μM HFI-419; GGFL detected without inhibitor; data not shown
compound,measurement,value
CCOC(=O)C1=C(NC(C)=O)Oc2cc(O)ccc2C1c1cccnc1 (stereo not shown) [HFI-419],product GGFL in dialysate during infusion of inhibitor,undetected
